Test results published in patent US20240309005A1 (priority 2021, published 2024).
In brackets after ≈: the same amount, converted by molar mass.

Assays:
[1] = male, SD, in vivo
[2] = tested on: hERG / SGK1 (whole cell)
[3] = in vivo; details: male, CD1, mouse
[4] = in vivo; details: male, SD, rat
[5] = physchem; details: 25 °C, kinetic from dmso stock
[6] = molecular target: CYP1A2 (Homo sapiens (Human), UniProt P05177); assay: in vitro; details: microsomes
[7] = molecular target: CYP2B6 (Homo sapiens (Human), UniProt P20813); assay: in vitro; details: microsomes
[8] = molecular target: CYP2C9 (Homo sapiens (Human), UniProt P11712); assay: in vitro; details: microsomes
[9] = molecular target: CYP2D6 (Homo sapiens (Human), UniProt P10635); assay: in vitro; details: microsomes
[10] = tested on: CYP3A4; assay: in vitro; details: human, microsomes

Sequence of CYP1A2 (P05177 whole entry): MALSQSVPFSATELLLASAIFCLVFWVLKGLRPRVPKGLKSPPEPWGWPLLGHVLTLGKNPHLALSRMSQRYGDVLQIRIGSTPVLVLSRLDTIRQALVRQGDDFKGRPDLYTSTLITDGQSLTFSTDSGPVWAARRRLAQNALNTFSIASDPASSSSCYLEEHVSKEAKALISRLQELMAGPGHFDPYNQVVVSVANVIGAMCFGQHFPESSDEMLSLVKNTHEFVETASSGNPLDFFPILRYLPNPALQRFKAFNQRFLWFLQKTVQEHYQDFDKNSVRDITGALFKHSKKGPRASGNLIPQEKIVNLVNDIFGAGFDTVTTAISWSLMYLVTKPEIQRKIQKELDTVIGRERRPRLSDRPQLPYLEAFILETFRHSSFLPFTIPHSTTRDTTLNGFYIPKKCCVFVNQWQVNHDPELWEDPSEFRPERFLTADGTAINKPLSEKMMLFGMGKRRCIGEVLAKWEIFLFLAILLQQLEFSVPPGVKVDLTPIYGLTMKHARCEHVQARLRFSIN
Sequence of CYP2C9 (P11712 whole entry): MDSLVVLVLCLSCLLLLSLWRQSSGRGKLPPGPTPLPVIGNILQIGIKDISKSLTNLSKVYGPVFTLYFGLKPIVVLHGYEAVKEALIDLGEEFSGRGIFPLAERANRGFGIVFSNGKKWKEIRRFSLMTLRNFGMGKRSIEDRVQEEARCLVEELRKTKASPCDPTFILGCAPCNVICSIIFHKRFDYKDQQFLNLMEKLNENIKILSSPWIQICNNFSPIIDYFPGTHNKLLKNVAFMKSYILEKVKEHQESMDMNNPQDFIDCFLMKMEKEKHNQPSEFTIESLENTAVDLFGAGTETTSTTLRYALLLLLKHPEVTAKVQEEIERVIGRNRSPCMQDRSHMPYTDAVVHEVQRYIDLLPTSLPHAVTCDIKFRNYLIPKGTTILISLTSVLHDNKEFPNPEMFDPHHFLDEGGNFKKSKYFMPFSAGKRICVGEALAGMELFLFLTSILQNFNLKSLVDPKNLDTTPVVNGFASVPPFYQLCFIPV
Sequence of CYP2B6 (P20813 whole entry): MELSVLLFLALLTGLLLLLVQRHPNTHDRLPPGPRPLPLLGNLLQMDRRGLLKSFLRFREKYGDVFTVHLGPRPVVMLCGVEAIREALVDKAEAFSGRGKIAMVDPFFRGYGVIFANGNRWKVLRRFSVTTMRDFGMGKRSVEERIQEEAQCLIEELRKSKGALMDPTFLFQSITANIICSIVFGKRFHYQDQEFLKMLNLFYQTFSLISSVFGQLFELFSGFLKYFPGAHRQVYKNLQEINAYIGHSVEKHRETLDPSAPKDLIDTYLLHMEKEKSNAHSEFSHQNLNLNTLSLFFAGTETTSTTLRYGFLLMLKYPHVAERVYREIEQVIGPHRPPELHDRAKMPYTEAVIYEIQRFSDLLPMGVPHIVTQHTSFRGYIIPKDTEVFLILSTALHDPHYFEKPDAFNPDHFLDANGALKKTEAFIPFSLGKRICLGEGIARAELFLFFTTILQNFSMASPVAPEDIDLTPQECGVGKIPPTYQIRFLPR
Sequence of CYP2D6 (P10635 whole entry): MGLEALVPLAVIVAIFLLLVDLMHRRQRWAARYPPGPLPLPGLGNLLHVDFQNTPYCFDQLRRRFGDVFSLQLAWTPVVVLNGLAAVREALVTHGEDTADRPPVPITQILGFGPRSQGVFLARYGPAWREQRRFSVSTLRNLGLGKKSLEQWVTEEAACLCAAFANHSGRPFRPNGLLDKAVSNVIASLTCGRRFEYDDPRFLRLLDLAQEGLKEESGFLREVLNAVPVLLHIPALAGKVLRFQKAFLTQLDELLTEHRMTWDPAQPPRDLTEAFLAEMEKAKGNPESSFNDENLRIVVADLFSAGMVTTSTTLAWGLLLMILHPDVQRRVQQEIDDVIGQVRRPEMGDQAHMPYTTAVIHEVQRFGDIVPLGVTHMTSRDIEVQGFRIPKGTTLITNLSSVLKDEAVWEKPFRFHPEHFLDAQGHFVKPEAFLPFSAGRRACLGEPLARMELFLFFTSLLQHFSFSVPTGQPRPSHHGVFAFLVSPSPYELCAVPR

## Cc1n[nH]c2nc(-c3ccc(NS(=O)(=O)c4cc(F)ccc4F)c(F)c3)nc(NCCN(C)C)c12 [Compound 84, N-[4-(4-[[2-(dimethylamino)ethyl]amino]-3-methyl-1H-pyrazolo[3,4-d]pyrimidin-6-yl)-2-fluorophenyl]-2,5-difluorobenzenesulfonamide]
[1]
  pK Data in Rat: F: Cmax = 2470 ng/mL F = 17.9%
[2]
  hERG/IC50: 177
[3]
  half-life: 2.3 h
[3]; po, 30 mg/kg
  Cmax: 621 ng/mL
  bioavailability: 22%
[4]
  half-life: 3.15 h
[4]; po, 30 mg/kg
  bioavailability: 17.9%
[4]; po, 30 mg/kg, Cmax (ng/ml)
  Cmax: 2470 ng/mL
[4]; po, 30 mg/kg, pK Data in Rat: Cmax
  Cmax: 2470 ng/mL
[5]; pH 5, fessif
  solubility at 2 h: 297 µM (≈ 150 µg/mL)
[5]; pH 7.4, aqueous buffer
  solubility at 2 h: 3.38 µM (≈ 1.71 µg/mL)
[6]
  inhibition at 20 min, 10 µM: -0.9%
[7]
  inhibition at 20 min, 10 µM: 1.2%
[8]
  inhibition at 20 min, 10 µM: 2.2%
[9]
  inhibition at 20 min, 10 µM: 0%
[10]
  inhibition at 5 min, 10 µM: 0.5%
  inhibition at 10 min, 10 µM: 3%
